Reference: patent US9976183B2, “Biomarkers for cancers responsive to modulators of HEC1 activity” (TAIVEX THERAPEUTICS CORPORATION, priority 2011, dated 2018)
Values joined by “and” are separate entries in the source; they are usually repeats but may differ in a detail not shown here. Equal values may be shown once.

Assays:
Format in all cases: cell-based
Hep3B = assay: Synergy of Hec1 inhibitor with cytotoxic drug (combination index, MTS); design: key to Combination Index: CI = (CA,X/ICx,A)+(CB,X/ICx,B) at x% drug effect
Description: (§1) Synergy: GI50s for selected drugs were determined and used to calculate a concentration ratio for use synergy assays with Hec1 inhibitors. Cells were treated with drugs 24 hours after being seeded in appropriate seeding numbers into 96 well plates containing low glucose DME with 10% FBS. […] Cell viability was determined by MTS assay using a CellTiter 96® Aqueous non-radioactive cell proliferation assay system (Promega, Madison, Wis. 53711 USA) according to the manufacturer's instructions. Optical density was determined using a Bio-Tek 340 spectrophotometer (Bio-Tek, Winooski, Vt. 05404) and were then processed using Excel (Microsoft, Redmond, Wash. 98052-7329) and GraphPad Prism 5 linear regression software (GraphPad Software, La Jolla, Calif. 92037 USA) to determine concentration-response curves for calculating relative GI50s. Synergy was determined by calculating a combination index value using the formula CI (combination index)=(CA,X/ICx,A)+(CB,X/ICx,B), where CA,X and CB,X are the concentrations of drug A and drug B used in combination to achieve x % drug effect. ICx,A and ICx,B are the concentrations for single agents to achieve the same effect.
(§2) Hec1 inhibitor-responsive cancer cells used for screening were treated with a mixture of Hec1 inhibitor and select anti-cancer drug at appropriate concentration ratios and evaluated for cell viability.

Huh7 [1] = assay: as above; design: key to Combination Index: CI = (CA,X/ICx,A)+(CB,X/ICx,B) at x% drug effect
Description: as §1, §2

NCI/ADR-RES = assay: Drug sensitivity, MTS assay, drug resistant cell line; settings: multi-drug resistant uterine sarcoma
Description: (§3) Drug sensitivity: Cell lines were screened for drug sensitivity by treatment with specified drugs 24 hours after seeding in appropriate seeding numbers into 96 well plates containing low glucose DME with 10% FBS. The drug was added to the plate in triplicate wells, and the cells are incubated in drug treated medium for 96 hours before cell viability was determined by MTS assay using CellTiter 96® Aqueous non-radioactive cell proliferation assay system (Promega, Madison, Wis. 53711 USA). The MTS assay was performed according to the manufacturer's instructions. Optical density was measured using a Bio-Tek 340 spectrophotometer (Bio-Tek, Winooski, Vt. 05404) and optical readings were then processed in Excel (Microsoft, Redmond, Wash. 98052-7329) and GraphPad Prism 5 linear regression software (GraphPad Software, La Jolla, Calif. 92037 USA) to determine concentration-response curves for calculating relative GI50s. […] The % growth inhibition of the test drug on cells were calculated as: [1−(Test Value)/(Control Value)]×100; these values were used to plot concentration-response curves, and then analyzed with linear regression software.

K562R = assay: as above; settings: Gleevec resistant myelogenous leukemia
Description: as §3

MB-231 = assay: Synergy of Hec1 inhibitor with cytotoxic drug (combination index, MTS)
Description: as §1, §2

MB-468 = assay: as above
Description: as §1, §2

K562 [2] = assay: as above
Description: as §1, §2

MDA-MB-453 = assay: Drug sensitivity, MTS cell viability assay (GI50); settings: Homo sapiens, MDA-MB-453, 96 hours
Description: as §3

MOLM-13 = assay: Drug sensitivity, MTS cell viability assay (GI50); settings: Homo sapiens, MOLM-13, 96 hours
Description: as §3

HCT116 = assay: Drug sensitivity, MTS cell viability assay (GI50); settings: Homo sapiens, HCT-116, HCT116, 96 hours
Description: as §3

MDA-MB-468 = assay: Drug sensitivity, MTS cell viability assay (GI50); settings: Homo sapiens, MDA-MB-468, 96 h
Description: as §3

K562 [3] = assay: Drug sensitivity, MTS cell viability assay (GI50)
Description: as §3

U2OS = assay: Drug sensitivity, MTS cell viability assay (GI50); settings: Homo sapiens, 96 hours
Description: as §3

T47D = assay: Drug sensitivity, MTS cell viability assay (GI50); settings: Homo sapiens, 96 hours
Description: as §3

MV4-11 = assay: Drug sensitivity, MTS cell viability assay (GI50); settings: Homo sapiens, MV4-11, 96 hours
Description: as §3

Huh7 [4] = assay: Drug sensitivity, MTS cell viability assay (GI50); settings: Huh7, 96 hours, MTS
Description: as §3

PC3 = assay: Drug sensitivity, MTS cell viability assay (GI50); settings: Homo sapiens, PC-3, PC3, 96 hours
Description: as §3

A549 = assay: Drug sensitivity, MTS cell viability assay (GI50); settings: Homo sapiens, A549, 96 hours
Description: as §3

MCF7 = assay: Drug sensitivity, MTS cell viability assay (GI50); settings: Homo sapiens, MCF7, 96 hours
Description: as §3

HeLa = assay: Drug sensitivity, MTS cell viability assay (GI50); settings: Homo sapiens, 96 hours
Description: as §3

MDA-MB-231 = assay: Drug sensitivity, MTS cell viability assay (GI50)
Description: as §3

HepG2 = assay: Synergy of Hec1 inhibitor with cytotoxic drug (combination index, MTS); design: key: CI = (CA,X/ICx,A)+(CB,X/ICx,B) at x% drug effect
Description: as §1, §2

PCL/PRF/5 = assay: as above; design: key: CI = (CA,X/ICx,A)+(CB,X/ICx,B) at x% drug effect
Description: as §1, §2

[5] = in combination with doxorubicin
[6] = in combination with Taxol (paclitaxel)
[7] = in combination with topotecan (187.20 nM), ratio used 3.74

COc1ccc(Oc2cc(C)c(-c3csc(NC(=O)c4ccncc4)n3)c(C)c2)cc1 [compound 101001, N-(4-(4-(4-methoxyphenoxy)-2,6-dimethylphenyl)thiazol-2-yl)isonicotinamide]
Synergy (Hep3B; in combination with sorafenib): Antagonistic | Synergy (Huh7 [1]; in combination with KXO1): Additive | Synergy (Huh7 [1]; [5]): Yes | Synergy (Huh7 [1]; in combination with paclitaxel): Yes | Synergy (Huh7 [1]; in combination with sorafenib): Antagonistic | GI50 (NCI/ADR-RES; Homo sapiens): 28.6 nM | GI50 (K562R; Homo sapiens, K-562R): 29.6 nM | Synergy (MB-231; in combination with paclitaxel): Yes | Synergy (MB-231; in combination with topotecan): Yes | Synergy (MB-468; [5]): Yes | Synergy (MB-468; in combination with topotecan): Yes | Synergy (K562 [2]; [5]): Yes | Synergy (K562 [2]; in combination with paclitaxel): Yes | GI50 (MDA-MB-453): 23.6 nM | GI50 (MOLM-13): 315 nM | GI50 (HCT116): 38.9 nM | GI50 (MDA-MB-468): 33.6 nM | GI50 (K562 [3]; K562, 96 hours, listed as 110001): 40.6 nM and 43.8 nM | GI50 (U2OS): 139 nM | GI50 (T47D): 17.1 nM | GI50 (MV4-11): 231 nM | GI50 (Huh7 [4]; Homo sapiens, Huh-7, 96 h): 84.3 nM | GI50 (PC3): 60 nM | GI50 (A549): > 10000 nM | GI50 (MCF7): 63.7 nM | GI50 (HeLa): 15.8 nM | GI50 (MDA-MB-231; Homo sapiens, MDA-MB-231, 96 h): 43.3 nM | GI50 (MDA-MB-231; MDA-MB-231, 96 hours, listed as 110001): 42.5 nM

COCCOc1cnc(Sc2cc(C)c(-c3csc(NC(=O)c4ccncc4)n3)c(C)c2)cn1 [compound 110095, N-(4-(4-(5-(2-methoxyethoxy)pyrazin-2-ylthio)-2,6-dimethylphenyl)thiazol-2-yl)isonicotinamide]
Combination Index (Hep3B; in combination with KX01): 2.79 | Combination Index (Hep3B; in combination with Taxol): 2.40 | Combination Index (Hep3B; [5]): 2.27 | Combination Index (Hep3B; in combination with sorafenib): 1.20 | Combination Index (Hep3B; in combination with topotecan): 1.48 | Combination Index (Huh7 [1]; in combination with KX01 (KXO1)): 0.96 | Combination Index (Huh7 [1]; in combination with KX01 (KXO1), listed as 0095): 1.36 | Synergy (Huh7 [1]; in combination with KXO1): Additive | Combination Index (Huh7 [1]; [6]): 0.65 | Combination Index (Huh7 [1]; in combination with Taxol (paclitaxel), listed as 0095): 1.05 | Combination Index (Huh7 [1]; [5]): 0.76 | Synergy (Huh7 [1]; in combination with paclitaxel): Yes | Combination Index (Huh7 [1]; in combination with sorafenib): 1.05 | Synergy (Huh7 [1]; in combination with sorafenib): Additive | Combination Index (Huh7 [1]; in combination with sorafenib, listed as 0095): 0.96 | Combination Index (Huh7 [1]; in combination with topotecan): 0.75 | Synergy (Huh7 [1]; in combination with topotecan (50.91 nM)): Yes | Combination Index (Huh7 [1]; [7]): 0.76 | Synergy (Huh7 [1]; [7]): Yes | GI50 (NCI/ADR-RES; Homo sapiens): 19.5 nM | GI50 (NCI/ADR-RES): 10.4 nM | GI50 (K562R): 7.27 nM | GI50 (K562R; Homo sapiens, K-562R): 10.4 nM | Combination Index (HepG2; in combination with KX01): 2.32 | Combination Index (HepG2; [5]): 3.00 | Combination Index (HepG2; in combination with sorafenib): 1.88 | Combination Index (HepG2; in combination with topotecan): 3.03 | Combination Index (PCL/PRF/5; in combination with KX01): 1.08 | Combination Index (PCL/PRF/5; in combination with Taxol): 0.81 | Combination Index (PCL/PRF/5; [5]): 2.31 | Combination Index (PCL/PRF/5; in combination with sorafenib): 1.41 | Combination Index (PCL/PRF/5; in combination with topotecan): 2.83 | Combination Index (MB-231; [6]): 1.21 | Combination Index (MB-231; [5]): 1.26 | Combination Index (MB-231; in combination with topotecan): 0.71 | Synergy (MB-231; in combination with topotecan): Yes | Combination Index (MB-468; in combination with Taxol): 1.08 | Combination Index (MB-468; [5]): 0.87 | Synergy (MB-468; [5]): Yes | Combination Index (MB-468; in combination with topotecan): 0.88 | Synergy (MB-468; in combination with topotecan): Yes | Combination Index (K562 [2]; [6]): 1.64 | Combination Index (K562 [2]; [5]): 0.49 | Synergy (K562 [2]; [5]): Yes | Combination Index (K562 [2]; in combination with topotecan): 1.38 | GI50 (MDA-MB-468): 21.1 nM | GI50 (K562 [3]; Homo sapiens, K562, 96 h): 28.2 nM | GI50 (Huh7 [4]; Homo sapiens, Huh-7, 96 h): 48.9 nM | GI50 (Huh7 [4]): 35 nM | GI50 (MDA-MB-231; Homo sapiens, MDA-MB-231, 96 h): 16.5 nM
